Data reported in patent US10675273B2, “Benzothiazole amphiphiles” (The Regents of the University of California, priority 2016, dated 2020).

Experiments:
[1] = tested on: rat primary hippocampal neurons; conditions: previously reported study [40]; cited from earlier work
RasGRF1 = assay: Western blot analysis of RasGRF1 expression; type: cell-based, human; conditions: differentiated SH-SY5Y cells; for increase in RasGRF1 expression compared to untreated cells: 5 μM, 24 h, normalized to β-tubulin
Procedure: Western Blot Analysis of Ras-GRF1 Expression in SH-SY5Y Cells Exposed to BAMs 1-3 or BTA-EG6. Differentiation of SH-SY5Y cells was performed according to a previously described procedure. Briefly, cells were differentiated for 8 days by the addition of 10 μM all-trans-retinoic acid (RA) in the cell culture medium (1:1 EMEM and Ham's F12 supplemented with 10% FBS). Media with RA was changed every 2 days. After 8 days, the media was removed and new, RA-free media containing the sample solutions was added. Cells were exposed to solutions containing a final concentration of the BTA-E6 and BAMs (0, 1, or 5 μM) for 24 hours at 37° C. Cells were than lysed with NP-40 buffer with protease inhibitor (Roche, ref #05892791001) and protein concentration was determined by BCA assay (Pierce BCA Assay Kit, #23225). Proteins were separated by SDS-PAGE (NUPAGE® 4-12% Bis-Tris gel, NUPAGE® MES SDS running buffer) followed by transfer onto nitrocellulose membrane (NOVEX®, LC2000). Membranes were blocked with 3% BSA in Tris-Buffered Saline with Tween 20 (TBST) for 1 h followed by incubation with primary antibodies in 3% BSA/TBST [mouse anti-RasGRF1 (BD 610149) and mouse anti-tubulin-β (Thermo MS1226-P)] overnight at 4° C. with shaking. Membranes were then washed with TBST (3×10 min) and then incubated with a TRITC labeled goat anti-mouse antibody (JAX 115-025-003) for 1 h at RT with shaking. After 1 h, the membranes were washed with TBST (6×5 min) and the proteins were visualized using a Typhoon 8600 variable mode imager (GE Healthcare). The density of each band was then quantified using ImageJ software as a percentage of control following normalization to β-tubulin.

[2] = tested on: rat primary hippocampal neurons; assay: Dendritic spine density and morphology in primary hippocampal neurons; type: cell-based; conditions: 24 h exposure, versus vehicle control (0.1% DMSO)
Procedure: Neuronal Cultures. Rat dissociated hippocampal neurons from postnatal day 1 were plated at a density of 45,000 cells/cm^2 onto poly-D-lysine-coated coverslips. Neurons were maintained in B27 supplemented Neurobasal media (Invitrogen) until days in vitro (DIV) 18-23 as previously described.
Neuronal Treatments. For all neuronal treatments the following general protocol was followed: Briefly, 18-23 DIV rat dissociated hippocampal neurons were dosed with various concentrations (0-50 μM final concentration) of BAMs 1-3 or BTA-EGx (with 0.1% final DMSO concentration) for various times (24-72 h depending on the experiment). After dosing and at the desired time point, the media was removed and cells were rinsed with PBS-MC (phosphate-buffered saline, 1 mM MgCl2 and 0.1 mM CaCl2). Following rinsing, cells were fixed with 4% paraformaldehyde (PFA)/sucrose in PBS for 10 min at RT. […]
Confocal Microscopy and Dendritic Spine Analysis. […] Imaged dendrites were straightened using ImageJ, and spine density was the number of manually counted spines divided by dendrite segment length. The analyzer was blind to treatment and statistical significance was determined between experimental conditions by either unpaired t tests (two groups) or by ANOVA and indicated post hoc multiple-comparison test (>2 experimental conditions).

[3] = tested on: human iPSC-derived neurons; assay: Spine density of PSD95 puncta in 3-month differentiated NSC; type: cell-based; conditions: 5 μM, control DMSO (0.1%)
Procedure: FIG. 10. Quantification of spine density of PSD95 puncta from 3-month differentiated NSC treated with compound or vehicle control The figure depicts neuron micrographs with staining for MAP2, PSD95 and composite under control and compound administration conditions. “Compound” refers to BAM3-EG6 (5 μM), as depicted in FIG. 1. “Control” refers to DMSO (0.1%). MAP2 is a marker for dendrites, and PSD95 is a marker for post-synaptic features. A histogram (below) depicts normalized PSD95 puncta under control and compound administration conditions. It is observed that […] increases spine density by about 50% compared to control in human iPSC-derived neurons.
FIG. 10 depicts quantification of spine density of PSD95 puncta from 3-month differentiated NSC treated with compound or vehicle control. It is observed that BTA-EG4 analog (e.g., those depicted in FIG. 1) increases spine density by about 50% compared to control in human iPSC-derived neurons.

[4] = previously reported [18,19], cited from earlier work
[5] = Fluorescence emission spectra in water, octanol and aqueous liposome suspension (membrane partitioning); type: physicochemical; conditions: 50 μM compound, DiPhyPC liposomes
Procedure: Measurement of Fluorescence Emission Spectra. The emission spectra of benzothiazoles in different environments was evaluated as previously described. Briefly, BAMs 1-3 and BTA-EG6 were diluted to a final concentration of 50 μM in deionized H2O, pure octanol, and a liposome suspension. The liposomes were prepared from a total lipid concentration of 10 mM of DiPhyPC in water by the gentle dehydration rehydration method followed by tip sonication. 200 μL of each sample was transferred to a cuvette (Hellma® Analytics, Quartz […]® (QS), 10 mm) and the fluorescence emission spectrum was measured in a PTI spectrofluorometer (0.5 nm step size) in water, octanol and an aqueous liposome suspension for BAMs 1-3 and BTA-EG6. Maximal excitation and emission values (λmax) for all compounds were as follows: BTA-EG6 (Ex/Em 355/420 nm), BAM1-EG6 (Ex/Em 355/420 nm), BAM2-EG6, (Ex/Em 365/428 nm), and BAM3-EG6 (Ex/Em 335/398 nm). Each experiment was repeated at least three separate times and error bars denote standard deviation from the mean. Data was processed using ORIGIN® 7.0 (MicroCal Software, Inc., Northampton, Mass.).

[6] = tested on: SH-SY5Y human neuroblastoma cells; assay: MTT cell viability assay; type: cell-based; conditions: 24 h exposure, read-out: IC50 of toxicity
Procedure: Measurement of Cell Viability in the Presence of BAMs 1-3 and BTA-EG6. An MTT cell viability assay was performed as previously described. Briefly, SH-SY5Y cells were plated in a 96 well plate at a density of 50,000 cells/well in 100 μL of 1:1 Eagle's Minimum Essential Medium (EMEM) and Ham's F12, supplemented with 10% Fetal Bovine Serum (FBS). Cells were allowed to adhere overnight (37° C., 5% CO2) before dosing with 100 μL of various samples solutions of either BTA-EG6 or BAMs 1-3 with final concentrations (0-250 Cells were exposed to these solutions for 24 h at 37° C., 5% CO2. An MTT cell viability kit (ATCC, Product No: 30-1010K) was then used to determine cell viability. Briefly, 20 μL of the provided MTT reagent was added per well and cells were placed in the incubator for 3 h. The insoluble intracellular purple formazan was then dissolved by the addition of 100 μL of detergent reagent provided and let solubilize overnight at room temperature. The cell viability was determined by measuring the absorbance at 570 nm using a SPECTRAMAX® 190 microplate reader (Molecular Devices). All results are presented as percent reduction of MTT relative to untreated cells (100% viability), and all wells were blanked with absorbance values from the wells containing media, MTT reagent and detergent only.

[7] = tested on: rat primary hippocampal neurons; assay: Rescue of Aβ-induced spine loss; type: cell-based; conditions: 1 μM Aβ (1-42) plus 1 or 5 μM compound, 3 days

SMILES: C[C@]12CC[C@@H]3c4ccc(O)cc4CC[C@H]3[C@@H]1CC[C@@H]2O [17β-estradiol]
- time required to induce maximal increase in spine density [1]: 96 h

SMILES: OCCOCCOCCOCCOCCOCCSc1ccc(-c2nc3ccccc3s2)cc1 [BAM3-EG6, 17-((4-(benzo[d]thiazol-2-yl)phenyl)thio)-3,6,9,12,15-pentaoxaheptadecan-1-ol]
- increase in RasGRF1 expression compared to untreated cells (RasGRF1): 70%

SMILES: Cc1ccc2nc(-c3ccc(NCCOCCOCCOCCO)cc3)sc2c1 [BTA-EG4]
- increase in RasGRF1 expression compared to untreated cells (RasGRF1): 20%
- effect on RasGRF1 expression levels (in words) (RasGRF1; 1 or 5 μM / increasing concentrations): dose-dependent increase in RasGRF1 levels
- effect on dendritic spine density (in words) [2]: observed increase in dendritic spine density over the vehicle control
- increase in spine density (PSD95 puncta) compared to control [3]: about 50%
- dendritic spine density in vivo ([4]; mice): phenotypic increase in dendritic spine density
- memory and learning in cognitive performance tests ([4]; wild-type mice and mouse model for AD): capability to improve memory and learning

SMILES: Cc1ccc2nc(-c3ccc(NCCOCCOCCOCCOCCOCCO)cc3)sc2c1 [BTA-EG6]
- change of emission max (λmax) in aqueous liposome suspension from water, relative to λmax in pure octanol [5]: 50%
- IC50 [6]: 90 µM
- increase in RasGRF1 expression compared to untreated cells (RasGRF1): approximately 20%
- net increase in dendritic spine density compared to control [7]: ~20%
- spine density higher than in cells treated with Aβ (1-42) alone [7]: ~50%
